Test results published in patent US8815872B2, “Macrocyclics pyrimidines as aurora kinase inhibitors” (Merck Patent GmbH, priority 2008, dated 2014).
Several values for one entry are separate records, joined by “and”; a condition that tells them apart may be missing. Identical values can stand only once.

What was measured:
Test in all cases: Other kinases, inhibition at 1 μM (Table 3)
Assay type in all cases: biochemical
CDK2/cyclin A = molecular target: T1, CDK2/cyclin A (Homo sapiens, UniProt P24941)
T1 construct: purchased Caliper Life Sciences
Description: (§1) The Aurora and other kinase assays described here were performed on two Caliper Life Sciences systems, the LC3000 and the Desktop Profiler. These provide data on enzyme activity via measurement of the relative amounts of phosphorylated or unphosphorylated fluorescently labelled substrate peptide at the end of an enzymatic reaction. These different states of peptide are resolved by applying a potential difference across the sample. The presence of a charged phosphate group on the product (as opposed to the substrate) causes a different peptide mobility between the two peptides. This is visualized by excitation of a fluorescent label on the substrate and product peptides and represented as peaks within the analysis software.
(§2) The Desktop Profiler utilizes the same principal as the LC 3000 for calculating percentage conversion of a substrate to product. Caliper Life Sciences provided proprietary flash frozen pre-made 384 well plates containing selected kinases. Each column in the 384 well plate contained a particular selected kinase. A second plate, the ‘substrate plate’ contained a mix of fluorescently labeled peptide substrate and ATP. These were arranged in columns so that transfer for substrate plate to enzyme plate provided the correct enzyme with the correct substrate/ATP concentration.
(§3) Compounds were added to a thawed enzyme plate in the desired format, in single concentrations. Reactions were initiated by transfer of the ubstrate/ATP mix from the substrate plate. The enzyme plate was incubated for 90 mins at 25 °C. The reaction was stopped by addition of […] of Stop Buffer (100 mM HEPES pH 7.5, 0.015% Brij-35, 10 mM EDTA (Sigma, E7889)).
(§4) Plates were read in a manner identical to that of the LC3000, and the ratio between substrate and product peaks provided the activity of the enzyme in that well. This was best represented by a plate heat map which colors each well by percent inhibition as compared to positive and negative controls (no inhibitors and no ATP respectively).

PKC-alpha = molecular target: T2, PKC-alpha (Homo sapiens, UniProt P17252)
T2 construct: purchased Caliper Life Sciences
Description: as §1, §2, §3, §4

BRSK2 = molecular target: T3, BRSK2 (Homo sapiens, UniProt Q8IWQ3)
T3 construct: purchased Caliper Life Sciences
T3 sequence (Q8IWQ3 whole entry, species assumed): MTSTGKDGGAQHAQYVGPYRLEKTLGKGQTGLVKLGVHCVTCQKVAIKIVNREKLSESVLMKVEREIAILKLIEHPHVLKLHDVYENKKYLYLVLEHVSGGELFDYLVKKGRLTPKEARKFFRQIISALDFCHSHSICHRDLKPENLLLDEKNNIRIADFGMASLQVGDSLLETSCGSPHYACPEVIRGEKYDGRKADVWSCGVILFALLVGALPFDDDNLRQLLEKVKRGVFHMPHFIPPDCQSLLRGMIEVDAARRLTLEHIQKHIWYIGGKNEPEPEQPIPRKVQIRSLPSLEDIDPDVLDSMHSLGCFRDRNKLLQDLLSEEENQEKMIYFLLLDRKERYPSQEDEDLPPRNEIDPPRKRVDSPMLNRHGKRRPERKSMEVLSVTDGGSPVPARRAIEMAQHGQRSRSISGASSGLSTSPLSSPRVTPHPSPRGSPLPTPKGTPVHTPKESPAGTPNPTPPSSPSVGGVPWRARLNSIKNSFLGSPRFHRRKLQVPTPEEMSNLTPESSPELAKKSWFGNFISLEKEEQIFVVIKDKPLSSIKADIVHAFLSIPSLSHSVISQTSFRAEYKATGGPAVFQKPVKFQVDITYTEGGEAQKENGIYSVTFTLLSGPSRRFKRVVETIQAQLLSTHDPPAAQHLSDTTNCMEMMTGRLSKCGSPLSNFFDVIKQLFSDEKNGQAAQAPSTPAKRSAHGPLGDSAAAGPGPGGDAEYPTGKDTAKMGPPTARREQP
Description: as §1, §2, §3, §4

PKA = molecular target: T4, PKA (Homo sapiens, UniProt P17612)
T4 construct: purchased Caliper Life Sciences
Description: as §1, §2, §3, §4

PKC-zeta = molecular target: T5, PKC-zeta (Homo sapiens, UniProt Q05513)
T5 construct: purchased Caliper Life Sciences
Description: as §1, §2, §3, §4

CAMKI = molecular target: T6, CAMKI (Homo sapiens, UniProt Q14012)
T6 construct: purchased Caliper Life Sciences
Description: as §1, §2, §3, §4

IGF1-R = molecular target: T7, IGF1-R (Homo sapiens, UniProt P08069)
T7 construct: purchased Caliper Life Sciences
Description: as §1, §2, §3, §4

PAK4 = molecular target: T8, PAK4 (Homo sapiens, UniProt O96013)
T8 construct: purchased Caliper Life Sciences
Description: as §1, §2, §3, §4

DYRK1-alpha = molecular target: T9, DYRK1-alpha (Homo sapiens, UniProt Q13627)
T9 construct: purchased Caliper Life Sciences
Description: as §1, §2, §3, §4

LCK = molecular target: T10, LCK (Homo sapiens, UniProt P06239)
T10 construct: purchased Caliper Life Sciences
T10 sequence (P06239 whole entry, species assumed): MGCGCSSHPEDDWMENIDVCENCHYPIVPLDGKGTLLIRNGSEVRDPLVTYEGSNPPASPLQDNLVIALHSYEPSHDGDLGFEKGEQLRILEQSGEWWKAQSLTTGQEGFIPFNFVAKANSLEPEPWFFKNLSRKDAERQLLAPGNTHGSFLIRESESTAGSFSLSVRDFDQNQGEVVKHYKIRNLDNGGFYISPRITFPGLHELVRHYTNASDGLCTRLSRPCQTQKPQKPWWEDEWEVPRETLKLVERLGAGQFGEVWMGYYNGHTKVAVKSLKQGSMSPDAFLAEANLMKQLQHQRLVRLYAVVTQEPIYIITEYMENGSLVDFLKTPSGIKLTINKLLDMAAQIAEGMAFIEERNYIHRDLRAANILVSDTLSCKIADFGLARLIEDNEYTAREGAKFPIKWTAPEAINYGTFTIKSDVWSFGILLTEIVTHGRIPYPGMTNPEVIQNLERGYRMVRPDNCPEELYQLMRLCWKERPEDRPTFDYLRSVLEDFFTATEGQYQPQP
Description: as §1, §2, §3, §4

SAPK3 = molecular target: T11, SAPK3 (Homo sapiens, UniProt P53778)
T11 construct: purchased Caliper Life Sciences
T11 sequence (P53778 whole entry, species assumed): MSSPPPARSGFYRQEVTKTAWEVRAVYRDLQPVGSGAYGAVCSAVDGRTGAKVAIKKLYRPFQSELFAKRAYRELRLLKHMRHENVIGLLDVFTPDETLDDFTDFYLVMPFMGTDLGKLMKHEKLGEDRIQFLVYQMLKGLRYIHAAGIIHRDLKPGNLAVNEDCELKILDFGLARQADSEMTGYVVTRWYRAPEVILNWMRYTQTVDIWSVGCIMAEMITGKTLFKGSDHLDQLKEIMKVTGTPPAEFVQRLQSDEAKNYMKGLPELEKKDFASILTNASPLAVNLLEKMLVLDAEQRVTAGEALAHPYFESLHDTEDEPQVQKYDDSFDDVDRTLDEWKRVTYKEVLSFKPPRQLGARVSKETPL
Description: as §1, §2, §3, §4

SAPK2-alpha = molecular target: T12, SAPK2-alpha (Homo sapiens, UniProt Q16539)
T12 construct: purchased Caliper Life Sciences
Description: as §1, §2, §3, §4

MNK-1 = molecular target: T13, MNK-1 (Homo sapiens, UniProt Q9BUB5)
T13 construct: purchased Caliper Life Sciences
T13 sequence (Q9BUB5 whole entry, species assumed): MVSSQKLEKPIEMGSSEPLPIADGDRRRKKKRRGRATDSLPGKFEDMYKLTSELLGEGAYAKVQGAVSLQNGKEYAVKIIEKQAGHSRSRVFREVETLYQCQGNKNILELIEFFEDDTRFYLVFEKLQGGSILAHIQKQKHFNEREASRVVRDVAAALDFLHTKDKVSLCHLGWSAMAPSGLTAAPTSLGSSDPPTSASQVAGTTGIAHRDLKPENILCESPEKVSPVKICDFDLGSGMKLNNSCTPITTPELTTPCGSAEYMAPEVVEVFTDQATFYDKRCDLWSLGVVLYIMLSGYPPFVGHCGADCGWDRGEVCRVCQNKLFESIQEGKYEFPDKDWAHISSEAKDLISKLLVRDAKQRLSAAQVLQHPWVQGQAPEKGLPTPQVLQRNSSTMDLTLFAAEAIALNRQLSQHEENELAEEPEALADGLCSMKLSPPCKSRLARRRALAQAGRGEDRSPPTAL
Description: as §1, §2, §3, §4

VEGFR = system: VEGFR
Description: as §1, §2, §3, §4

BTK = molecular target: T14, BTK (Homo sapiens, UniProt Q06187)
T14 construct: purchased Caliper Life Sciences
Description: as §1, §2, §3, §4

PLK1 = molecular target: T15, PLK1 (Homo sapiens, UniProt P53350)
T15 construct: purchased Caliper Life Sciences
T15 sequence (P53350 whole entry, species assumed): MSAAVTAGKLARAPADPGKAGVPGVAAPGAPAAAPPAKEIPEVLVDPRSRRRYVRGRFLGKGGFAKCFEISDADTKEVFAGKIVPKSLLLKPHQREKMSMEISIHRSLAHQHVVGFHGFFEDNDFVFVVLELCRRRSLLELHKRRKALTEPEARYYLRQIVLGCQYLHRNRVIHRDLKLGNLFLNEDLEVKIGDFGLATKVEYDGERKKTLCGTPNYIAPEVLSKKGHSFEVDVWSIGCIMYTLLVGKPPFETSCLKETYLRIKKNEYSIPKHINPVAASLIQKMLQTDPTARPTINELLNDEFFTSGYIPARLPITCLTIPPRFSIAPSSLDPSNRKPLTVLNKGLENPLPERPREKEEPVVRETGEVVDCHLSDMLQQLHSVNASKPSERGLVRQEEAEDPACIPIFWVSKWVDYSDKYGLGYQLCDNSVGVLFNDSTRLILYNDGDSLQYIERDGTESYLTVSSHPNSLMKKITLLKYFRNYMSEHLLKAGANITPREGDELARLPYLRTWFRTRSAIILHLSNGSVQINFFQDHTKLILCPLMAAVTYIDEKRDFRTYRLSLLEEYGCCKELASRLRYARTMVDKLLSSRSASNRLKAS
Description: as §1, §2, §3, §4

HIPK2 = molecular target: T16, HIPK2 (Homo sapiens, UniProt Q9H2X6)
T16 construct: purchased Caliper Life Sciences
T16 sequence (Q9H2X6 whole entry, species assumed): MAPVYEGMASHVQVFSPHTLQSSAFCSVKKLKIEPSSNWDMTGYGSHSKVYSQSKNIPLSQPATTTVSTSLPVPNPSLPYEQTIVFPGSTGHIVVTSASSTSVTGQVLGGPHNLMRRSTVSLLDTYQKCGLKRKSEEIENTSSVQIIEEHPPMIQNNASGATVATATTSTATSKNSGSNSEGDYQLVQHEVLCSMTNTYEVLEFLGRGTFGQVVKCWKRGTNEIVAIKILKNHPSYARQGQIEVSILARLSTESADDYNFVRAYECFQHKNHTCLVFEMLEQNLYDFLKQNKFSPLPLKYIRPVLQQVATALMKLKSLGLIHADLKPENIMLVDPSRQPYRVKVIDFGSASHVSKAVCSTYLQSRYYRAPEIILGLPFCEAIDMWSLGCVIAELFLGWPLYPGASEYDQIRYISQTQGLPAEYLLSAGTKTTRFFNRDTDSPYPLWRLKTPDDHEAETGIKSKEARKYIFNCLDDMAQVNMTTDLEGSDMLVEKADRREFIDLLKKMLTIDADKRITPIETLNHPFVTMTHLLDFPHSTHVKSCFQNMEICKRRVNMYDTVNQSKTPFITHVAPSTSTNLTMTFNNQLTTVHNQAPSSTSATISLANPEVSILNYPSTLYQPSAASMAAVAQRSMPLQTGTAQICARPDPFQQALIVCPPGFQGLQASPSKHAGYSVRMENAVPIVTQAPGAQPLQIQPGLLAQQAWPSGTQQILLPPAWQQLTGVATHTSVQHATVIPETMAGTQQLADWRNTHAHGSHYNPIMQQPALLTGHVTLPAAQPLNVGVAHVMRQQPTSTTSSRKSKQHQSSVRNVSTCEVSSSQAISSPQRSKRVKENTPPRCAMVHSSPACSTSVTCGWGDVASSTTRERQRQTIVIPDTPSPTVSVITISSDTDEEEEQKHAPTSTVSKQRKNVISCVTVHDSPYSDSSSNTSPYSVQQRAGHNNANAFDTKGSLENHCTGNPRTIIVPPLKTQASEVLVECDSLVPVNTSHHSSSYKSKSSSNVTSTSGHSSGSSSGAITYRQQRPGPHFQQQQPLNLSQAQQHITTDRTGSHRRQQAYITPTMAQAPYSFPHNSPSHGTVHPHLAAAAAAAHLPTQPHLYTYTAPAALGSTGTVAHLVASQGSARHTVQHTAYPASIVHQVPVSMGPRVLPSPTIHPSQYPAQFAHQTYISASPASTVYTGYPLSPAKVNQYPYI
Description: as §1, §2, §3, §4

ROCK-II = molecular target: T17, ROCK-II (Homo sapiens, UniProt O75116)
T17 construct: purchased Caliper Life Sciences
Description: as §1, §2, §3, §4

PKB-beta = molecular target: T18, PKB-beta (Homo sapiens, UniProt P31751)
T18 construct: purchased Caliper Life Sciences
Description: as §1, §2, §3, §4

CHK1 = molecular target: T19, CHK1 (Homo sapiens, UniProt O14757)
T19 construct: purchased Caliper Life Sciences
T19 sequence (O14757 whole entry, species assumed): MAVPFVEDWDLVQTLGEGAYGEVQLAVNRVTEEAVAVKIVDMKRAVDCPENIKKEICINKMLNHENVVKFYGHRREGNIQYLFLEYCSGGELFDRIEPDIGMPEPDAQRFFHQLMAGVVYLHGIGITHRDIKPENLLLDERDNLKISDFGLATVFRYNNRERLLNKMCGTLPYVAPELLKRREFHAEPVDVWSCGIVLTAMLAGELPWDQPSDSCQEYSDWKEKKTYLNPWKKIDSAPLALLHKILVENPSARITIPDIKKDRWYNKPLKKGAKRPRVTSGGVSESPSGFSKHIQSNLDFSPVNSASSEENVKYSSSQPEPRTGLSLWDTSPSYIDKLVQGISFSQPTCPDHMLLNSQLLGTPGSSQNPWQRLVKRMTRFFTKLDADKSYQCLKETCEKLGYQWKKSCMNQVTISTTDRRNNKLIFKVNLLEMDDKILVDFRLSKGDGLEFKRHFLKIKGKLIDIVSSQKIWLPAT
Description: as §1, §2, §3, §4

PBK = molecular target: T20, PBK (Homo sapiens, UniProt Q96KB5)
T20 construct: purchased Caliper Life Sciences
Description: as §1, §2, §3, §4

SGK = molecular target: T21, SGK (Homo sapiens, UniProt O00141)
T21 construct: purchased Caliper Life Sciences
Description: as §1, §2, §3, §4

IR = molecular target: T22, IR (Homo sapiens, UniProt P06213)
T22 construct: purchased Caliper Life Sciences
Description: as §1, §2, §3, §4

TBK1 = molecular target: T23, TBK1 (Homo sapiens, UniProt Q9UHD2)
T23 construct: purchased Caliper Life Sciences
Description: as §1, §2, §3, §4

CSK = molecular target: T24, CSK (Homo sapiens, UniProt P41240)
T24 construct: purchased Caliper Life Sciences
Description: as §1, §2, §3, §4

S6K1 = molecular target: T25, S6K1 (Homo sapiens, UniProt P23443)
T25 construct: purchased Caliper Life Sciences
Description: as §1, §2, §3, §4

smMLCK = system: smMLCK
Description: as §1, §2, §3, §4

Syk = molecular target: T26, Syk (Homo sapiens, UniProt P43405)
T26 construct: purchased Caliper Life Sciences
Description: as §1, §2, §3, §4

MNK-2-alpha = molecular target: T27, MNK-2-alpha (Homo sapiens, UniProt Q9HBH9)
T27 construct: purchased Caliper Life Sciences
Description: as §1, §2, §3, §4

EphA2 = molecular target: T28, EphA2 (Homo sapiens, UniProt P29317)
T28 construct: purchased Caliper Life Sciences
Description: as §1, §2, §3, §4

SRC = molecular target: T29, SRC (Homo sapiens, UniProt P12931)
T29 construct: purchased Caliper Life Sciences
Description: as §1, §2, §3, §4

EF2K = molecular target: T30, EF2K (Homo sapiens, UniProt O00418)
T30 construct: purchased Caliper Life Sciences
Description: as §1, §2, §3, §4

MST4 = molecular target: T31, MST4 (Homo sapiens, UniProt Q9P289)
T31 construct: purchased Caliper Life Sciences
Description: as §1, §2, §3, §4

PKB-alpha = molecular target: T32, PKB-alpha (Homo sapiens, UniProt P31749)
T32 construct: purchased Caliper Life Sciences
Description: as §1, §2, §3, §4

Row | SMILES | % inhibition CDK2/cyclin A (CDK2/cyclin A) [%] | % inhibition PKC-alpha (PKC-alpha) [%] | inhibition at 1 µM (BRSK2) [%] | % inhibition PKA (PKA) [%] | % inhibition PKC-zeta (PKC-zeta) [%] | % inhibition CAMKI (CAMKI) [%] | inhibition at 1 µM (IGF1-R) [%] | % inhibition PAK4 (PAK4) [%] | inhibition at 1 µM (DYRK1-alpha) [%] | inhibition at 1 µM (LCK) [%] | inhibition at 1 µM (SAPK3) [%] | inhibition at 1 µM (SAPK2-alpha) [%] | % inhibition MNK-1 (MNK-1) [%] | % inhibition VEGFR (VEGFR) [%] | % inhibition BTK (BTK) [%] | % inhibition PLK1 (PLK1) | inhibition at 1 µM (HIPK2) [%] | inhibition at 1 µM (ROCK-II) [%] | % inhibition PKB-beta (PKB-beta) [%] | % inhibition CHK1 (CHK1) [%] | other results
1 | Fc1cnc2nc1NC1CCCC(C1)OC/C=C\COc1cccc(c1)N2 (single isomer, unassigned) [Example 33, (16Z)-6-fluoro-14,19-dioxa-2,4,8,26-tetraazatetracyclo[18.3.1.1˜3,7˜0.1˜9,13˜]hexacosa-1(24),3(26),4,6,16,20,22-heptaene] | 60 | 57 | 81 | 82 | 104 | 93 | 82 | 81 | 86 | 54 | 87 | 76 | 95 | 49 | 37 | 63% and 92% | 68 | 79 | 85 | 98 | % inhibition PBK (PBK): 89%; inhibition at 1 µM (SGK): 87%; inhibition at 1 µM (IR): 67%; inhibition at 1 µM (TBK1): 97%; inhibition at 1 µM (CSK): 86%; inhibition at 1 µM (S6K1): 74%; % inhibition smMLCK (smMLCK): 92%; inhibition at 1 µM (Syk): 84%; % inhibition MNK-2-alpha (MNK-2-alpha): 81%; inhibition at 1 µM (EphA2): 81%; inhibition at 1 µM (SRC): 58%; inhibition at 1 µM (EF2K): 78%; % inhibition MST4 (MST4): 89%; % inhibition PKB-alpha (PKB-alpha): 85%
2 | NC(=O)[C@H]1[C@H]2C[C@H]3[C@H]1Nc1nc(ncc1F)Nc1cccc(c1)CSS[C@@H]3C2 [Example 10] | 94 | 56 | 26 | 72 | 99 | 73 | 2 | 38 | 83 | 14 | 72 | 89 | 98 | 15 | 2 | 4% and 12% | 23 | 75 | 101 | 73 | % inhibition PBK (PBK): 99%; inhibition at 1 µM (SGK): 82%; inhibition at 1 µM (IR): 37%; inhibition at 1 µM (TBK1): 100%; inhibition at 1 µM (CSK): 56%; inhibition at 1 µM (S6K1): 94%; % inhibition smMLCK (smMLCK): 39%; inhibition at 1 µM (Syk): 52%; % inhibition MNK-2-alpha (MNK-2-alpha): 82%; inhibition at 1 µM (EphA2): 25%; inhibition at 1 µM (SRC): 14%; inhibition at 1 µM (EF2K): 62%; % inhibition MST4 (MST4): 59%; % inhibition PKB-alpha (PKB-alpha): 93%
